# Data: patent US12281225B2, “Process for preparing stable polymers containing vinylimidazole” (BASF SE, priority 2018, dated 2025)
# Assay: Analysis of active substance: preservative concentration before and after storage in VI-containing polymer solution
# Type: physicochemical
# Details: for active-substance concentration, 0 d, RT: before storage; for active-substance concentration, 14 d, 40° C.: storage 14 d at 40° C.; for active-substance concentration, 28 d, 40° C.: storage 28 d at 40° C.; for active-substance concentration, 60 d 40° C.: storage 60 d at 40° C.
# How it was run: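 Preservatives (MIT, BIT, CMIT, OIT, DCOIT, iodopropynyl butyl carbamate) in aqueous vinylpyrrolidone–vinylimidazole copolymer solution quantified after dilution by isocratic RP18 chromatography with UV detection, using an acid-methanol eluent.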
substance,measurement,setting,value
benzalkonium chloride [BAC],"active-substance concentration, 0 d, RT",in Polymer P1,1000 ppm
same,"active-substance concentration, 14 d, 40° C.",in Polymer P1,990 ppm
same,"active-substance concentration, 28 d, 40° C.",in Polymer P1,990 ppm
same,"active-substance concentration, 60 d 40° C.",in Polymer P1,970 ppm
same,"active-substance concentration, 0 d, RT",in Polymer P2,1000 ppm
same,"active-substance concentration, 14 d, 40° C.",in Polymer P2,990 ppm
same,"active-substance concentration, 28 d, 40° C.",in Polymer P2,990 ppm
same,"active-substance concentration, 60 d 40° C.",in Polymer P2,970 ppm
same,"active-substance concentration, 0 d, RT",in Polymer P3,1000 ppm
same,"active-substance concentration, 14 d, 40° C.",in Polymer P3,970 ppm
same,"active-substance concentration, 28 d, 40° C.",in Polymer P3,973 ppm
same,"active-substance concentration, 60 d 40° C.",in Polymer P3,967 ppm
same,"active-substance concentration, 0 d, RT",in Polymer P4,1000 ppm
same,"active-substance concentration, 14 d, 40° C.",in Polymer P4,1000 ppm
same,"active-substance concentration, 28 d, 40° C.",in Polymer P4,991 ppm
same,"active-substance concentration, 60 d 40° C.",in Polymer P4,977 ppm
same,"active-substance concentration, 0 d, RT",in Polymer P5 (HP56),1000 ppm
same,"active-substance concentration, 14 d, 40° C.",in Polymer P5 (HP56),990 ppm
same,"active-substance concentration, 28 d, 40° C.",in Polymer P5 (HP56),90 ppm
same,"active-substance concentration, 60 d 40° C.",in Polymer P5 (HP56),970 ppm
same,"active-substance concentration, 0 d, RT",in Polymer P6,1000 ppm
same,"active-substance concentration, 14 d, 40° C.",in Polymer P6,990 ppm
same,"active-substance concentration, 28 d, 40° C.",in Polymer P6,981 ppm
same,"active-substance concentration, 60 d 40° C.",in Polymer P6,976 ppm
same,"active-substance concentration, 0 d, RT",in Polymer P7,1000 ppm
same,"active-substance concentration, 14 d, 40° C.",in Polymer P7,988 ppm
same,"active-substance concentration, 28 d, 40° C.",in Polymer P7,985 ppm
same,"active-substance concentration, 60 d 40° C.",in Polymer P7,979 ppm
same,"active-substance concentration, 0 d, RT",in Polymer P8,1000 ppm
same,"active-substance concentration, 14 d, 40° C.",in Polymer P8,990 ppm
same,"active-substance concentration, 28 d, 40° C.",in Polymer P8,990 ppm
same,"active-substance concentration, 60 d 40° C.",in Polymer P8,970 ppm
same,"active-substance concentration, 0 d, RT",in Polymer P9,1000 ppm
same,"active-substance concentration, 14 d, 40° C.",in Polymer P9,990 ppm
same,"active-substance concentration, 28 d, 40° C.",in Polymer P9,985 ppm
same,"active-substance concentration, 60 d 40° C.",in Polymer P9,975 ppm
